Source: ChEMBL document CHEMBL5291721, “A preclinical secondary pharmacology resource illuminates target-adverse drug reaction associations of marketed drugs” (Nat Commun, 2023)

What was measured:
Melanocortin receptor 3 = Melanocortin receptor 3 (Homo sapiens, UniProt P41968)
[1] = biological target: T1, 5-hydroxytryptamine receptor 2C (Homo sapiens, UniProt P28335)
T1 sequence (P28335 whole entry): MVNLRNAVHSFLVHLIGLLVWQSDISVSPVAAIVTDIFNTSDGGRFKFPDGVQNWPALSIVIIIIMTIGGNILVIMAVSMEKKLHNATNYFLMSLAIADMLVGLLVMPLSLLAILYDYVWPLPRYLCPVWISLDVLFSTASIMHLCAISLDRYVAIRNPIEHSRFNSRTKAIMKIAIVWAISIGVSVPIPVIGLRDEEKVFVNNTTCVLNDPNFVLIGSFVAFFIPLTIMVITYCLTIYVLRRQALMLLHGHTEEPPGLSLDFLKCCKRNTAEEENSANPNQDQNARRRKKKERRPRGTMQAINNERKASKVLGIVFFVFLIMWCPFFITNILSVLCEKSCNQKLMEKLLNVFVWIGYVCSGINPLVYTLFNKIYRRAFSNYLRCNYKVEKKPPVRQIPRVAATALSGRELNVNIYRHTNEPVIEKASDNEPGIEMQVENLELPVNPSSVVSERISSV

[2] = biological target: Growth hormone secretagogue receptor type 1 (Homo sapiens, UniProt Q92847)
[3] = biological target: T2, Prostaglandin G/H synthase 1 (Rattus norvegicus, UniProt Q63921); assay type: functional
T2 sequence (Q63921 whole entry): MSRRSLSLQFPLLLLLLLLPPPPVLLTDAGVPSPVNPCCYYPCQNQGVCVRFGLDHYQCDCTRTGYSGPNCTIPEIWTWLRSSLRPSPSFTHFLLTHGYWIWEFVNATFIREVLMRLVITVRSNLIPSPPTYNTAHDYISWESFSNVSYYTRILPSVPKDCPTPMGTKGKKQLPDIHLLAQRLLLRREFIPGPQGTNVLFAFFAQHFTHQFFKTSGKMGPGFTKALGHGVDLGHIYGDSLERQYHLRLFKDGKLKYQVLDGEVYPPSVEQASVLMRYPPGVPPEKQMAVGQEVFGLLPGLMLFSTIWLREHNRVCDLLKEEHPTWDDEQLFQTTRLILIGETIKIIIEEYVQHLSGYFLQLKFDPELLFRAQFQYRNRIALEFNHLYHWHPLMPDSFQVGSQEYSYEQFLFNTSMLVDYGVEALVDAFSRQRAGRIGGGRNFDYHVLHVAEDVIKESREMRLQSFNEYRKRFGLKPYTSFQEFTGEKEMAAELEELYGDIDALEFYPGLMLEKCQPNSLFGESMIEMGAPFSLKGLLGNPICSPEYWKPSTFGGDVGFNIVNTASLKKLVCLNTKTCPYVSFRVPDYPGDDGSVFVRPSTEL

[4] = biological target: T3, Gamma-aminobutyric acid receptor subunit alpha-1 (Rattus norvegicus, UniProt P62813)
[5] = biological target: 5-hydroxytryptamine receptor 2A (Homo sapiens, UniProt P28223); assay type: functional, cell-based
Histamine H3 receptor = Histamine H3 receptor (Homo sapiens, UniProt Q9Y5N1)
Histamine H1 receptor = Histamine H1 receptor (Homo sapiens, UniProt P35367)
Progesterone receptor = biological target: T4, Progesterone receptor (Homo sapiens, UniProt P06401); assay type: functional
T4 sequence (P06401 whole entry): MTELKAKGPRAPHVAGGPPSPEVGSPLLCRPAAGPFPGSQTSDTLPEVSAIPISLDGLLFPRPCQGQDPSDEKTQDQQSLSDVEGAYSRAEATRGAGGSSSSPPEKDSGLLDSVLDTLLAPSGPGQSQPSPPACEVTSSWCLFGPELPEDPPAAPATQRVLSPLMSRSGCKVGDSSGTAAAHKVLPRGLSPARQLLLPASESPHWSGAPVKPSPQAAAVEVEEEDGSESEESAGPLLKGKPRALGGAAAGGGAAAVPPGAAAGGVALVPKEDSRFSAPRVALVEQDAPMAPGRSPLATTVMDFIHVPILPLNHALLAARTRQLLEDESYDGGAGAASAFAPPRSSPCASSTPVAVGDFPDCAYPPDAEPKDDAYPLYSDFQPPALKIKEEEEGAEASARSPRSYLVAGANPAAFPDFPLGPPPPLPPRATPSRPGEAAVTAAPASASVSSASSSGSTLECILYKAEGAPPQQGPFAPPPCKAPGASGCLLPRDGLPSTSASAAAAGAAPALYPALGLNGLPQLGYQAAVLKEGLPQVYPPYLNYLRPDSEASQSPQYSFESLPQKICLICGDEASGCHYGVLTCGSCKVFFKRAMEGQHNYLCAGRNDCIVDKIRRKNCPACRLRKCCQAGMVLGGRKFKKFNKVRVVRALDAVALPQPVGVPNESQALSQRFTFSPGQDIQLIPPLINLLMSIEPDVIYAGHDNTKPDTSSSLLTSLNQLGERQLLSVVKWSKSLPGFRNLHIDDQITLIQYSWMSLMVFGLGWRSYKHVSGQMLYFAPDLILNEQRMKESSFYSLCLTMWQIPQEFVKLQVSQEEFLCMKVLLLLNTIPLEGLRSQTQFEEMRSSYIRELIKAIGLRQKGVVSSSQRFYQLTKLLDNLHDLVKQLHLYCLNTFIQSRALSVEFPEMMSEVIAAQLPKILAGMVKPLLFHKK

[6] = biological target: T3, Gamma-aminobutyric acid receptor subunit alpha-1; assay type: functional
[7] = biological target: T5, Alpha-2A adrenergic receptor (Homo sapiens, UniProt P08913); assay type: functional, cell-based
T5 sequence (P08913 whole entry): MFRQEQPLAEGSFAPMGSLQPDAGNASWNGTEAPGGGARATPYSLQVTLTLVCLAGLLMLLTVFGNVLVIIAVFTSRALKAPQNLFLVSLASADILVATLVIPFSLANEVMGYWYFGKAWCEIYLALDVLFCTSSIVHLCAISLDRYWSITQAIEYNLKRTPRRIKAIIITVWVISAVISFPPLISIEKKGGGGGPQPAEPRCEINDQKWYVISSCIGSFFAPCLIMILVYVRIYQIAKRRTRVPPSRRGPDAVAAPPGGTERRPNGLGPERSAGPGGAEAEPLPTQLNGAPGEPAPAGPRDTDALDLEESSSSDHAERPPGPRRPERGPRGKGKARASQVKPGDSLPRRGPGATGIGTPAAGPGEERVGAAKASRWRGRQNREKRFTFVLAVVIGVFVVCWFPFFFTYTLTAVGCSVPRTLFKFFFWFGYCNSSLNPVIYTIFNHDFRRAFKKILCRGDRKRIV
Note: assay procedure not described here.

Sequence of Melanocortin receptor 3 (P41968 whole entry): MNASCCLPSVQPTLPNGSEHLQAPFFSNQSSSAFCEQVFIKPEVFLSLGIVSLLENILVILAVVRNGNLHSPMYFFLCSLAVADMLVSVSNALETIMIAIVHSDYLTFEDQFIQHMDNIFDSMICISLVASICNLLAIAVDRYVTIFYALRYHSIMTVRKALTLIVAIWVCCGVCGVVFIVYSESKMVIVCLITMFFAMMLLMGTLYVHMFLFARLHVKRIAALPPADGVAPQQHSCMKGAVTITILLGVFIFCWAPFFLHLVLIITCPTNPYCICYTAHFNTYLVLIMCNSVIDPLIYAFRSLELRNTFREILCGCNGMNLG
Sequence of Histamine H1 receptor (P35367 whole entry): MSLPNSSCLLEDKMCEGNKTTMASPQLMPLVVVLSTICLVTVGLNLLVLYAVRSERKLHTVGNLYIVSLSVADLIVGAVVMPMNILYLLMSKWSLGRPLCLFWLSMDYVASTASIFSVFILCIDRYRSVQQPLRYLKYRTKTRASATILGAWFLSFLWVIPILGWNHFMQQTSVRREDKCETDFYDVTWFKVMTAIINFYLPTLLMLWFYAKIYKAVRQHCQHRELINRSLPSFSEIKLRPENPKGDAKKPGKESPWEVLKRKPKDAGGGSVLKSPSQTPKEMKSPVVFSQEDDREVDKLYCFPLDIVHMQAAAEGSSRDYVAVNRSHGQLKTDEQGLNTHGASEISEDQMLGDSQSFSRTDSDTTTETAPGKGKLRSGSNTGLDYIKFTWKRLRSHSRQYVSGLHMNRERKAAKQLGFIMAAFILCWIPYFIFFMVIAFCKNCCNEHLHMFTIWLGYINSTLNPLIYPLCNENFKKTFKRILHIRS
Sequence of Histamine H3 receptor (Q9Y5N1 whole entry): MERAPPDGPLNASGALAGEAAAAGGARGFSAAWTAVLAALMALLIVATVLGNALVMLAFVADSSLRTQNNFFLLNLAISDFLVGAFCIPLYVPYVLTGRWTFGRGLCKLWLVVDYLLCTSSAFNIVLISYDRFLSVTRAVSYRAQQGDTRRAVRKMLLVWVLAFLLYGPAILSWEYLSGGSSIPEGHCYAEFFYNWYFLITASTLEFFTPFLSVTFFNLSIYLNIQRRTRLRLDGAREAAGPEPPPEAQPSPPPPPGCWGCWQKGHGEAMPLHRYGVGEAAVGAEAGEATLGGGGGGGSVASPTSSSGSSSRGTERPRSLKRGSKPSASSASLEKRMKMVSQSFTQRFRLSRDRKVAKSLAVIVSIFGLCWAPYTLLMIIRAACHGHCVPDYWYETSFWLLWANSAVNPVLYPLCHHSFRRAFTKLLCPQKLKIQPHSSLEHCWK
Sequence of Growth hormone secretagogue receptor type 1 (Q92847 whole entry): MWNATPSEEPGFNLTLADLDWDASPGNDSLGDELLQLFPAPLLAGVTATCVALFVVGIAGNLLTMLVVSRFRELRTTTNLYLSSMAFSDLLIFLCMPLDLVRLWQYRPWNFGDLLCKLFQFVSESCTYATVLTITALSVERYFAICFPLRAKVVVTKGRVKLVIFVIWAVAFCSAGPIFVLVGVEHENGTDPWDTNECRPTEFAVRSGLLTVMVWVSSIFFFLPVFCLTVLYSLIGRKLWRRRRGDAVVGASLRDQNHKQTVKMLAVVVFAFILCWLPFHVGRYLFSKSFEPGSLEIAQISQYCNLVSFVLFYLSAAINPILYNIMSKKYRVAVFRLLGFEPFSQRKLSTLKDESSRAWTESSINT
Sequence of 5-hydroxytryptamine receptor 2A (P28223 whole entry): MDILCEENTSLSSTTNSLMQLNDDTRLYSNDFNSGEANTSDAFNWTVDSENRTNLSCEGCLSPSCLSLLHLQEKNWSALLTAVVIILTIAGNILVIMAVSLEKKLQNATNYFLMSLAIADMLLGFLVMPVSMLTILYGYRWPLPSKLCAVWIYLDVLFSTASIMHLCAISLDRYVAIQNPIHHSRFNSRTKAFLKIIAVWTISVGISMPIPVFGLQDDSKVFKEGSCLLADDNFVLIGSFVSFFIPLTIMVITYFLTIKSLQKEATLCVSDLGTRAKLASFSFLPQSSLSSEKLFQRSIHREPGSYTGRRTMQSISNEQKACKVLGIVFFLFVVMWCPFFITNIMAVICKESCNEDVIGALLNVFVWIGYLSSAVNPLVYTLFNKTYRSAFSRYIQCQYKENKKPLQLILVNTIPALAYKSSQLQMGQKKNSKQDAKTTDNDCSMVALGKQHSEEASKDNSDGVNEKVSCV
T3 sequence (P62813 whole entry): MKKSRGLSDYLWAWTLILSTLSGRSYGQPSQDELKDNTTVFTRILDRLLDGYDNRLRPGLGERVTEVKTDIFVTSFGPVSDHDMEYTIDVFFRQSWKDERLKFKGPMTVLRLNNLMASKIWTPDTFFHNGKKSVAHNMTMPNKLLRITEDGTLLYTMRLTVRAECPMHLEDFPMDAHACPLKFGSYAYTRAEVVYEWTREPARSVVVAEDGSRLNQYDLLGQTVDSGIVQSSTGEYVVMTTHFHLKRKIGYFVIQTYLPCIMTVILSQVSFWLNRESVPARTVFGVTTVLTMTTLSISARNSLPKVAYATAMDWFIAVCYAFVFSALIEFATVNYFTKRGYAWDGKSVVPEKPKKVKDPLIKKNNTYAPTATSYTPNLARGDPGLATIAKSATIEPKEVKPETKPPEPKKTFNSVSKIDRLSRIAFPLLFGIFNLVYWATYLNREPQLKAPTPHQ

N#Cc1ccccc1-c1cc(-c2ccccn2)cn(-c2ccccc2)c1=O
AC50 (Melanocortin receptor 3): > 30 µM | AC50 [1]: > 30 µM | AC50 [2]: > 30 µM | AC50 [3]: > 30 µM | AC50 [4]: > 30 µM | AC50 [5]: > 30 µM | AC50 (Histamine H3 receptor): > 30 µM | AC50 (Histamine H1 receptor): > 30 µM | AC50 (Progesterone receptor): > 30 µM | AC50 [6]: > 30 µM | AC50 [7]: > 30 µM

N=C(N)NCCCCCCC(=O)NC(O)C(=O)NCCCCNCCCN (stereo not given)
AC50 (Melanocortin receptor 3): > 30 µM | AC50 [1]: > 30 µM | AC50 [2]: > 30 µM | AC50 [3]: > 30 µM | AC50 [4]: > 30 µM | AC50 [5]: > 30 µM | AC50 (Histamine H3 receptor): > 30 µM | AC50 (Histamine H1 receptor): > 30 µM | AC50 (Progesterone receptor): > 30 µM | AC50 [6]: > 30 µM | AC50 [7]: > 30 µM

CCCCC1(CC)C(=O)NC(=O)NC1=O [BUTETHAL]
AC50 (Melanocortin receptor 3): > 30 µM | AC50 [1]: > 30 µM | AC50 [2]: > 30 µM | AC50 [3]: > 30 µM | AC50 [5]: > 30 µM | AC50 (Histamine H3 receptor): > 30 µM | AC50 (Histamine H1 receptor): > 30 µM | AC50 (Progesterone receptor): > 30 µM | AC50 [6]: > 30 µM | AC50 [7]: > 30 µM

C=CC1=C(C(=O)O)N2C(=O)[C@@H](NC(=O)/C(=N\OCC(=O)O)c3csc(N)n3)[C@H]2SC1 [CEFIXIME]
AC50 (Melanocortin receptor 3): > 30 µM | AC50 [2]: > 30 µM | AC50 [3]: > 30 µM | AC50 [5]: > 30 µM | AC50 (Histamine H3 receptor): > 30 µM | AC50 (Histamine H1 receptor): > 30 µM | AC50 (Progesterone receptor): > 30 µM | AC50 [7]: > 30 µM

CCN(CC)CCOC(=O)c1ccc(N)cc1Cl [CHLOROPROCAINE]
AC50 (Melanocortin receptor 3): > 30 µM | AC50 [1]: 17 µM | AC50 [2]: > 30 µM | AC50 [3]: > 30 µM | AC50 [5]: > 30 µM | AC50 (Histamine H3 receptor): 4 µM | AC50 (Histamine H1 receptor): > 30 µM | AC50 (Progesterone receptor): > 30 µM | AC50 [6]: > 30 µM | AC50 [7]: > 30 µM

C[C@@H]1C[C@H]2[C@@H]3C[C@H](F)C4=CC(=O)C=C[C@]4(C)[C@@]3(F)[C@@H](O)C[C@]2(C)[C@H]1C(=O)CO [DIFLUCORTOLONE]
AC50 (Melanocortin receptor 3): > 30 µM | AC50 [3]: > 30 µM | AC50 [5]: > 30 µM | AC50 (Histamine H1 receptor): > 30 µM | AC50 (Progesterone receptor): > 0.03 µM

O=C(O)c1ccccc1OP(=O)(O)O [FOSFOSAL]
AC50 (Melanocortin receptor 3): > 30 µM | AC50 [1]: > 30 µM | AC50 [2]: > 30 µM | AC50 [3]: > 30 µM | AC50 [5]: > 30 µM | AC50 (Histamine H3 receptor): > 30 µM | AC50 (Histamine H1 receptor): > 30 µM | AC50 (Progesterone receptor): > 30 µM | AC50 [6]: > 30 µM | AC50 [7]: > 30 µM

CCCC[C@H](C)C[C@H](O)/C=C/[C@H]1[C@H](O)CC(=O)[C@@H]1CCCC/C=C/C(=O)O [LIMAPROST]
AC50 (Melanocortin receptor 3): > 30 µM | AC50 [1]: > 30 µM | AC50 [2]: > 30 µM | AC50 [3]: > 30 µM | AC50 [4]: > 30 µM | AC50 [5]: > 30 µM | AC50 (Histamine H3 receptor): > 30 µM | AC50 (Histamine H1 receptor): > 30 µM | AC50 (Progesterone receptor): > 30 µM | AC50 [7]: > 30 µM

CC(=O)Nc1c(I)c(C(=O)N[C@H]2C(O)O[C@H](CO)[C@@H](O)[C@@H]2O)c(I)c(N(C)C(C)=O)c1I (stereo not given in full) [METRIZAMIDE]
AC50 (Melanocortin receptor 3): > 10 µM | AC50 [1]: > 30 µM | AC50 [2]: > 10 µM | AC50 [3]: > 10 µM | AC50 [4]: > 30 µM | AC50 [5]: > 10 µM | AC50 (Histamine H1 receptor): > 10 µM | AC50 (Progesterone receptor): > 10 µM | AC50 [6]: > 10 µM | AC50 [7]: > 10 µM

CC(=O)O[C@H]1C[C@@H]2CC[C@@H]3[C@H](CC[C@@]4(C)[C@H]3C[C@H]([N+]3(C)CCCCC3)[C@@H]4OC(C)=O)[C@@]2(C)C[C@@H]1[N+]1(C)CCCCC1 [PANCURONIUM]
AC50 (Melanocortin receptor 3): > 10 µM | AC50 [1]: > 30 µM | AC50 [2]: > 10 µM | AC50 [3]: > 10 µM | AC50 [4]: > 10 µM | AC50 [5]: > 10 µM | AC50 (Histamine H1 receptor): > 10 µM | AC50 (Progesterone receptor): > 10 µM | AC50 [6]: > 10 µM | AC50 [7]: > 10 µM

CCN(CC)CC(=O)Oc1ccc(NC(C)=O)cc1 [PROPACETAMOL]
AC50 (Melanocortin receptor 3): > 30 µM | AC50 [1]: > 30 µM | AC50 [2]: > 30 µM | AC50 [4]: > 30 µM | AC50 [5]: > 30 µM | AC50 (Histamine H3 receptor): > 30 µM | AC50 (Histamine H1 receptor): > 30 µM | AC50 (Progesterone receptor): > 30 µM | AC50 [6]: > 30 µM | AC50 [7]: > 30 µM

COc1cc2nccc(Oc3ccc(NC(=O)Nc4cc(C)on4)c(Cl)c3)c2cc1OC [TIVOZANIB]
AC50 (Melanocortin receptor 3): > 3 µM | AC50 [3]: > 3 µM | AC50 [5]: 24 µM | AC50 (Histamine H1 receptor): > 30 µM | AC50 (Progesterone receptor): > 3 µM
